≈ marks a conversion by molar mass, not a printed value. A value given as a limit tells only on which side of the number the result lay.

The test system of one series is S. aureus. As to the kind of experiment: In-vitro antimicrobial experiment (MIC, 96-well broth dilution). Format: cell-based, Staphylococcus aureus. As to conditions: 37° C., 24 h; for MIC: LB liquid medium. How it is done: (§1) An in-vitro antimicrobial experiment of the chlorhexidine antimicrobial disinfectant was performed according to the following steps: • in a sterile super clean bench, the chlorhexidine antimicrobial disinfectants were separately prepared into 10 mg/ml solutions. A 96-well plate was taken and 100 μL of an LB liquid medium was injected into each well plate. Two rows in the same 96-well plate were respectively used as a sterile control and a drug-free control, 100 μL of the prepared chlorhexidine antimicrobial disinfectant solution was injected into the first column of the rest rows, two rows of each chlorhexidine antimicrobial disinfectant solution were injected as two groups of a parallel test, 100 μL of the uniformly mixed solution was injected into the right side well, the step was repeated until 12 columns of the wells were filled, and 100 μL of the solution was extracted from the last column and discarded. The previously cultured E. coli and S. aureus were diluted to a desired concentration of 1×10^6 CFU/mL using the LB liquid medium. 100 μL of the above-mentioned bacterial solution was injected into each well of the rows injected with the chlorhexidine antimicrobial disinfectant and the drug-free control row in the same plate. Then the plate was placed into a biochemical incubator to be cultured at 37° C. for 24 h. The plate was taken out and the change of the turbidity degree of each well was observed. […] It was observed by naked eyes that the lowest concentration of the antimicrobial agent in the clear wells where no bacteria grew was the minimum inhibitory concentration (MIC) of the tested bacteria.

A further series is described as follows: Water solubility test. Format: physicochemical. The conditions noted are these: deionized water, 25° C., 500 mg sample in 1 ml. How it is done:
A method for testing the water solubility of the chlorhexidine antimicrobial disinfectant included the following steps: • 1 ml of deionized water was added to 500 mg of a sample to be tested and the sample was fully dissolved at 25° C. If an insoluble component existed, an insoluble portion suspended in the solution. After the solution was centrifuged in a centrifuge (rate of 5,000 r/min) for 5 min, the residual solid was washed 3 times in acetone and then dried in a vacuum oven for 24 h, and after the solid was completely dried, the solid was weighed and recorded as W1.
The solubility was calculated as follows: • solubility (mg/ml)=(500−W1)/1 • where W1 is the mass (mg) of the undissolved solid.

In another series the test system is E. coli. As to the kind of experiment: In-vitro antimicrobial experiment (MIC, 96-well broth dilution). It counts as cell-based, Escherichia coli. The conditions noted are these: 37° C., 24 h; for MIC: LB liquid medium. As for the experimental part:
as §1

The subject of a further series is L-929 mouse fibroblasts. Format: cell-based. How it is done:
A cytotoxicity test of the hyaluronic acid chlorhexidine, for example the hyaluronic acid chlorhexidine (HAL-CHD) of example 4, specifically included the following steps: • L-929 mouse fibroblasts were digested and the cell suspension concentration was adjusted to 0.5-1 million/mL. 100 μL of the cell suspension was added into each well of a 96-well plate with […]. The wells at the edge of the 96-well plate were filled with a culture solution. The cells were cultured overnight in a 5% CO2 incubator at 37° C. Three samples of HAL-CHD-1 (1 MIC), HAL-CHD-3 (3 MIC) and HAL-CHD-5 (5 MIC) at the concentration gradients of 10 μL or less were respectively added, and 5 replicates were prepared for each concentration gradient. At the same time, a zero-setting well (containing a culture medium and CCK-8) was set. The 96-well plate was incubated in a 5% CO2 incubator at 37° C. After 24 h, 48 h and 72 h, 10 μL of a CCK-8 reagent was added. The reaction was performed in the incubator for 3 h and the absorbance was measured using a microplate reader at the wavelength of 450 nm.

A further series is described as follows: Photostability test. The conditions noted are these: fluorescent lamp. Format: physicochemical. How it is done:
A photostability test of the hyaluronic acid chlorhexidine, for example the hyaluronic acid chlorhexidine (HA8-CHD) prepared in example 2, was performed according to the following steps: • a sample to be detected was exposed in an illumination box provided with a fluorescent lamp for 5 days and taken on 1st day, 3rd day and 5th day. Items (appearance, mass, 1H NMR spectrum detection, and antimicrobial performance) were mainly detected according to stability, especially the appearance change of the sample was particularly required to be noticed.

On to `N=C(NCCCCCCNC(=N)NC(=N)Nc1ccc(Cl)cc1)NC(=N)Nc1ccc(Cl)cc1.O=C(O)[C@H](O)[C@@H](O)[C@H](O)[C@H](O)CO.O=C(O)[C@H](O)[C@@H](O)[C@H](O)[C@H](O)CO` [GA-CHD, chlorhexidine gluconate, reference compound], for which the MIC against S. aureus is 700 µM; against E. coli, 900 µM. In “Water solubility test”, the Water solubility was not below 500 mg/mL.

Turning to hyaluronic acid chlorhexidine [HA4-CHD], in the series with S. aureus, the “MIC, corresponding mass concentration” value is listed as 1,250 μg/mL and the MIC was 800 µM. Moreover, in the series on E. coli, the “MIC, corresponding mass concentration” value is recorded as 1,667 μg/mL and the minimum inhibitory concentration (MIC) came out at 1100 µM.

Take `CC(=O)O.CC(=O)O.NC(=N\CCCCCC/N=C(N)/N=C(\N)Nc1ccc(Cl)cc1)/N=C(\N)Nc1ccc(Cl)cc1` [AA-CHD, chlorhexidine acetate]: the Water solubility in “Water solubility test” is listed as 19.05 mg/mL.

The compound `[H]/N=C(\N/C(=N/[H])NCCCCCCNC(=N)NC(=N)Nc1ccc(Cl)cc1)Nc1ccc(Cl)cc1` [CHD, 1,6-bis(p-chlorophenyldiguanido)hexane] showed a solubility in “Water solubility test” (thermodynamic from solid) of 0.85 mg/mL (≈ 1680 µM).

In the case of hyaluronic acid chlorhexidine [HAL-CHD], the “cell viability versus control group” value in the series on L-929 mouse fibroblasts is “higher that of the control group”.

In the case of hyaluronic acid chlorhexidine [HA8-CHD], the “antimicrobial performance after illumination” value in the series “Photostability test” (after illumination) is reported as “not obviously reduced”. Besides, in “Photostability test” (within 5 days of illumination), the “appearance versus freshly prepared sample” value is “no significant difference in appearance”, the “mass versus freshly prepared sample” value is reported as “no significant change in the mass” and the “structure characterization (1H NMR) versus freshly prepared sample” value was “no significant difference in the structure characterization”. In addition, the Water solubility in the series “Water solubility test” is recorded as not below 500 mg/mL.
